Test results reported in publication PMC7413254 (Nature Communications, 2020).

Key:
Type in all cases: cell-based
PfCRT^Ecu1110 [1] = molecular target: T1, PfCRT^Ecu1110 (Plasmodium falciparum, UniProt Q9N623, A220S/I356L/K76T/N326D); experiment: [3H]CQ uptake into Xenopus oocytes, cis-inhibition by unlabelled solute; settings: for PfCRT-mediated [3H]CQ transport, cis-inhibition (% PfCRTEcu1110 control): PfCRTEcu1110 oocytes, background [3H]CQ accumulation subtracted, normalised to oocyte type control; for [3H]CQ transport (% PfCRTEcu1110 control), cis-inhibition, PfCRTEcu1110: PfCRT-mediated component (background subtracted), sheet title says normalised to PfCRTDd2 control, mean ± SEM, SEM
Outline: (§1)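 Each treatment used ten oocytes, repeated in at least four experiments on different days with oocytes from different frogs. Conditions: ND96 pH 5.5, 27.5 °C, 1.5 h; read-out by scintillation counting.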

PfCRT^Dd2 [2] = molecular target: T2, PfCRT^Dd2 (Plasmodium falciparum, UniProt Q9N623, A220S/I356T/K76T/M74I/N326S/N75E/Q271E/R371I); experiment: as above; settings: PfCRTDd2 oocytes, background [3H]CQ accumulation subtracted, normalised to oocyte type control
Outline: as §1

PfCRT^Ecu1110 [3] = molecular target: T1, PfCRT^Ecu1110; experiment: cell-based; settings: for PfCRT-mediated [3H]CQ transport, trans-stimulation (% PfCRTEcu1110 control): PfCRTEcu1110 oocytes, normalised to oocyte type control; for [3H]CQ transport (% PfCRTDd2 control), trans-stimulation, PfCRTEcu1110: PfCRT-mediated component (background subtracted), sheet title says normalised to PfCRTDd2 control, mean ± SEM, SEM
Outline: (§2)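 Oocytes (ten per treatment, ≥4 independent frogs/days) were preloaded by injecting VF-6 in 25 nL ND96 at pH 5.0, 5.5, 6.0 or 7.0, or Na^+-free choline buffer, then uptake run 1.5 h, 27.5 °C, ND96 pH 5.5 by default. Internal concentrations assumed ~400 nL oocyte volume.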

PfCRT^3D7 = PfCRT^3D7 (Plasmodium falciparum, UniProt Q8IBZ9); experiment: cell-based; settings: PfCRT3D7 oocytes, normalised to oocyte type control
Outline: as §2

PfCRT^Dd2 [4] = molecular target: T2, PfCRT^Dd2; experiment: cell-based; settings: for PfCRT-mediated [3H]CQ transport, trans-stimulation (% PfCRTDd2 control): PfCRTDd2 oocytes, normalised to oocyte type control; for [3H]CQ transport (% PfCRTDd2 control), trans-stimulation, PfCRTDd2: PfCRT-mediated component (background subtracted), mean ± SEM, SEM
Outline: as §2

[5] = [test solute]i = 5 mM (intracellular)
[6] = [test solute]i = 45 mM (intracellular; 30 mM for some solutes due to solubility)
[7] = [test solute]i = 5 mM (injected)
[8] = [test solute]i = 45 mM (30 mM for some solutes due to solubility)

Chain of PfCRT^3D7 (Q8IBZ9 59-398): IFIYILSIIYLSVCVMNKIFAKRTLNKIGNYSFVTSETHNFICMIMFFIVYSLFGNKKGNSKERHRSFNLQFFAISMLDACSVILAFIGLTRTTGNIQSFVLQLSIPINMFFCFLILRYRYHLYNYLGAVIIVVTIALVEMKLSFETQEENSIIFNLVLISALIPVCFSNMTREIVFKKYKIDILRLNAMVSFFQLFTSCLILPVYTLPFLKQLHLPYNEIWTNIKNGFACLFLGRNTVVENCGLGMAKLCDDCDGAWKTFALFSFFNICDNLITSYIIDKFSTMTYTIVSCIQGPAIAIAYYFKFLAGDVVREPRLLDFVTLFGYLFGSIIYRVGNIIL
T1 sequence (Q9N623 whole entry A220S/I356L/K76T/N326D): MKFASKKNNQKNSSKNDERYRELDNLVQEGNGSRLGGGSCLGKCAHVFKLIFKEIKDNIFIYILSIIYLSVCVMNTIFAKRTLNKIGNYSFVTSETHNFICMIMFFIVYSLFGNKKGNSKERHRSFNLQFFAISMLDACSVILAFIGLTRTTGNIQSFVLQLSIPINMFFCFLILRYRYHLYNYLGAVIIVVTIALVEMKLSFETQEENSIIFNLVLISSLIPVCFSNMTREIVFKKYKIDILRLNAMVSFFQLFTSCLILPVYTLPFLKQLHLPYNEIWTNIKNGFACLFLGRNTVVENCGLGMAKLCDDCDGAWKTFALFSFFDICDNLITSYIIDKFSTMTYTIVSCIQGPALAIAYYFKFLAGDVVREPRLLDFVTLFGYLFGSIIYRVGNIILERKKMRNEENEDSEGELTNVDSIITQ
T2 sequence (Q9N623 whole entry A220S/I356T/K76T/M74I/N326S/N75E/Q271E/R371I): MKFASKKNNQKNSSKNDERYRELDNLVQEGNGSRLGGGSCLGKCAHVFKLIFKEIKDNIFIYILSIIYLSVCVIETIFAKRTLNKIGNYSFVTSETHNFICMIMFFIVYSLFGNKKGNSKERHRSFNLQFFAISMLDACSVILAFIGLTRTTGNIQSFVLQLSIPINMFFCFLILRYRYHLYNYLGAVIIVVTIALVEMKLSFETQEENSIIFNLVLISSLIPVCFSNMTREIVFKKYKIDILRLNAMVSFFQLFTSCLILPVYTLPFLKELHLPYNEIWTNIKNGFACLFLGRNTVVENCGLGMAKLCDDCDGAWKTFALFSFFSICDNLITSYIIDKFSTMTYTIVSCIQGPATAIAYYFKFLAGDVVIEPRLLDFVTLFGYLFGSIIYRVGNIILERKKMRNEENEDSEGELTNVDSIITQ

Substance | PfCRT-mediated [3H]CQ transport, cis-inhibition (% PfCRTEcu1110 control) (PfCRT^Ecu1110 [1]; [test solute] = 0.5 mM) | PfCRT-mediated [3H]CQ transport, cis-inhibition (% PfCRTEcu1110 control) (PfCRT^Ecu1110 [1]; [test solute] = 1 mM) | PfCRT-mediated [3H]CQ transport, cis-inhibition (% PfCRTEcu1110 control) (PfCRT^Ecu1110 [1]; [test solute] = 2 mM) | [3H]CQ transport (% PfCRTEcu1110 control), cis-inhibition, PfCRTEcu1110 (PfCRT^Ecu1110 [1]; [test solute] = 0.5 mM) [% PfCRTEcu1110 control] | [3H]CQ transport (% PfCRTEcu1110 control), cis-inhibition, PfCRTEcu1110 (PfCRT^Ecu1110 [1]; [test solute] = 1 mM) [% PfCRTEcu1110 control] | [3H]CQ transport (% PfCRTEcu1110 control), cis-inhibition, PfCRTEcu1110 (PfCRT^Ecu1110 [1]; [test solute] = 2 mM) [% PfCRTEcu1110 control] | PfCRT-mediated [3H]CQ transport, cis-inhibition (% PfCRTDd2 control) (PfCRT^Dd2 [2]; [test solute] = 0.5 mM) | PfCRT-mediated [3H]CQ transport, cis-inhibition (% PfCRTDd2 control) (PfCRT^Dd2 [2]; [test solute] = 1 mM) | PfCRT-mediated [3H]CQ transport, cis-inhibition (% PfCRTDd2 control) (PfCRT^Dd2 [2]; [test solute] = 2 mM) | PfCRT-mediated [3H]CQ transport, trans-stimulation (% PfCRTEcu1110 control) (PfCRT^Ecu1110 [3]; [5]) | PfCRT-mediated [3H]CQ transport, trans-stimulation (% PfCRTEcu1110 control) (PfCRT^Ecu1110 [3]; [6]) | [3H]CQ transport (% PfCRTDd2 control), trans-stimulation, PfCRTEcu1110 (PfCRT^Ecu1110 [3]; [7]) [% PfCRTEcu1110 control] | [3H]CQ transport (% PfCRTDd2 control), trans-stimulation, PfCRTEcu1110 (PfCRT^Ecu1110 [3]; [8]) [% PfCRTEcu1110 control] | PfCRT-mediated [3H]CQ transport, trans-stimulation (% PfCRT3D7 control) (PfCRT^3D7; [5]) | PfCRT-mediated [3H]CQ transport, trans-stimulation (% PfCRT3D7 control) (PfCRT^3D7; [6]) | PfCRT-mediated [3H]CQ transport, trans-stimulation (% PfCRTDd2 control) (PfCRT^Dd2 [4]; [5]) | PfCRT-mediated [3H]CQ transport, trans-stimulation (% PfCRTDd2 control) (PfCRT^Dd2 [4]; [6]) | [3H]CQ transport (% PfCRTDd2 control), trans-stimulation, PfCRTDd2 (PfCRT^Dd2 [4]; [7]) [% PfCRTDd2 control] | [3H]CQ transport (% PfCRTDd2 control), trans-stimulation, PfCRTDd2 (PfCRT^Dd2 [4]; [8]) [% PfCRTDd2 control]
PPVQA [PA-5] | 59 ± 2.1 | 41 ± 1.4 | 28 ± 0.5 | 19 ± 0.3 | 13 ± 0.5 | 9.0 ± 0.05 | 39 ± 1.1 | 31 ± 3.1 | 19 ± 1.2 | 91 ± 5.7 | 97 ± 4.4 | 28 ± 1.7 | 29 ± 1.4 | 133 ± 4.6 | 178 ± 5.2 | 100 ± 4.2 | 95 ± 5.6 | 100 ± 4.2 | 95 ± 5.6
SHCLLVT [ST-7] | 39 ± 1.1 | 31 ± 2.5 | 19 ± 1.4 | 12 ± 0.5 | 10 ± 0.1 | 6.0 ± 0.02 | 38 ± 1.0 | 27 ± 1.3 | 12 ± 0.1 | 130 ± 3.2 | 136 ± 4.3 | 39 ± 1.3 | 41 ± 2.2 | 140 ± 4.3 | 192 ± 4.6 | 97 ± 3.2 | 113 ± 2.0 | 97 ± 3.2 | 113 ± 2.0
TPPVQ [TQ-5] | 56 ± 3.1 | 49 ± 2.6 | 42 ± 2.4 |  | 15 ± 0.1 | 13 ± 0.1 | 50 ± 2.1 | 30 ± 2.1 | 15 ± 0.3 | 96 ± 3.5 | 96 ± 2.3 | 29 ± 1.6 | 30 ± 1.6 | 94 ± 3.5 | 96 ± 4.2 | 96 ± 3.2 | 97 ± 4.5 | 96 ± 3.2 | 97 ± 4.5
